# Assays:
# Type in all cases: cell-based
# human insulin C-peptide = experiment: Content of human insulin C-peptide by ELISA in cell fractions; conditions: EDTA added during re-aggregation (Table 2, Expt 3)
# Description: On day 20, the medium used in step III of Example 2 was modified to adjust the glucose concentration to 5.5 mM (referred to herein as DM7). For isolation of EpCAM^+ cells by magnetic cell sorting (MACS technology, Miltenyi Biotec), a 10 cm-diameter plate was washed with PBS^−/− (no Ca^++, no Mg^++). Cells were then dissociated by treatment with Accutase (Stempro, 2.5 ml/10 cm plate), for 10 minutes at 37° C., and pipetting up and down. The cells were collected in DM7 and an aliquot counted in a NucleoCounter (New Brunswick). Cells were centrifuged at 1,500 rpm (350×g) for 5 minutes and re-suspended in MACS buffer (PBS^−/− with 0.5% BSA, 2 mM EDTA), using 0.3 ml for 50 million cells. Magnetic beads conjugated to anti-EpCAM antibodies (Miltenyi Biotec—CD326 pluripotent stem cells microbeads) were added (0.1 ml beads for 50 million cells). After 30 minutes at 4° C., the cells were washed once in 50 ml of MACS buffer, centrifuged, and finally re-suspended in 0.5 ml MACS buffer (for a maximum of 10^8 cells). […]
# Aliquots of the Presort culture and of EpCAM-MACS-separated fractions (from step 7), as well as of re-aggregated clusters (step 8) were analyzed. The number of cells was counted, using the Nucleocounter. […] Human insulin mRNA was quantitated by RT-qPCR (Taq-Man, Applied Biosystems, Step One) using the TATA binding protein (TBP) gene as reference. […]
# Human insulin mRNA = Human insulin mRNA by RT-qPCR with TBP as reference; conditions: EDTA added during the re-aggregation step
# Description: Aliquots of the Presort culture and of EpCAM-MACS-separated fractions (from step 7), as well as of re-aggregated clusters (step 8) were analyzed. The number of cells was counted, using the Nucleocounter. After centrifugation at 350×g for 5 minutes, cell pellets were dissolved in M-PER (Mammalian protein extraction reagent, Pierce), typically using 0.1 ml M-PER for 2 million cells, and content of human insulin C-peptide was measured with an ELISA kit (Mercodia, Upsalh, Sweden, ultrasensitive c-peptide kit (minimal detection 5 pM) or Mercodia c-peptide ELISA (minimal detection 90 pM). Samples in M-PER were diluted 3 fold, or more in the kit buffer, and 20 μl of the ⅓ dilution were assayed. Results were expressed per mg total protein (as measured by Bradford assay) and per million cells (counted in a NucleoCounter). Other cell pellets were suspended in 0.7 ml buffer RLT (RNAeasy, Qiagen) per million cells, for RNA extraction. Human insulin mRNA was quantitated by RT-qPCR (Taq-Man, Applied Biosystems, Step One) using the TATA binding protein (TBP) gene as reference. In the same way, proteins and RNA were extracted from entire plates after scraping the cells with a rubber policeman. […]
# human ES cells [1] = experiment: Immunostaining for C-peptide and glucagon in islet-like structures
# Description: (§1) On day 13, medium was changed to DMEM/F12, Glutamine 2 mM, PS, 1×ITS supplement (Invitrogen), 2 mg/ml BSA, 5 μg/ml bovine fibronectin (Biological Industries Bet Ha'emek,), Nicotinamide 10 mM (SIGMA) and exendin-4, 5-50 ng/ml. Medium was changed every two days. Cells positive for C-peptide staining start to appear around day 19 of differentiation, but strong immunostaining for C-peptide appears at day 23 and positive islet like structures continue to form till day 50 and persist for at least 70 days. When the cells have differentiated more than 15-20 days, they can be further trypsinized and replated. On the second plating, islet-like structures appear 20-30 days after replating.
# Cultures obtained as in Examples 1 and 2 were further cultured in ITS medium (as detailed in step III of Example 2) and were stained using polyclonal rabbit antibody to C-peptide (Acris) or monoclonal antibody (MAB 1975, Abcam) at dilution 1:200 overnight. To detect glucagon-produing cells, the cultures were also stained with goat polyclonal antibody against Glucagon (Santa Cruz N-17) at the concentration of 1:200 over night. The glucose transporter Glut2 was detected with mouse monoclonal Anti Glut-2 antibodies (R&D systems) used at the concentration of 1:200. […]
# human ES cells [2] = experiment: Immunofluorescence for Pdx1 positive cells during differentiation
# Description: On day 6, cells were washed with DMEM/F12, 2 mM glutamine, 1×PS, and medium changed to differentiation medium B1 (DMEM/F12, 2 mM glutamax (Invitrogen), 2 mg/ml BSA, 1% B27 supplement (In Vitrogen) 50 ng/ml human recombinant FGF10 (Preprotech), and 10 μM Forskolin (F-6886 from coleus forskohlii (SIGMA)). The cells were left two days in the same medium.
# On day 8, the medium was changed to differentiation medium B2 i.e. medium B1 with addition of 2 μM fresh ATRA (All trans retinoic acid) for five days. Medium was changed every two days.
# as §1
# Performed as in Example 1. Goat polyclonal anti-human Pdx1/IPF1 (R&D) antibody at 1:100 for 2 hrs, (blocking at 5% BSA in PBS with Triton 0.1%) was used. […]
compound,measurement,setting,value
"O=C(O)CN(CCN(CC(=O)O)CC(=O)O)CC(=O)O [EDTA, reference compound]",effect on C-peptide content of re-aggregated cells,human insulin C-peptide,further increase
same,effect on enrichment of insulin mRNA,Human insulin mRNA,increased
exendin-4: maturation factor added to ITS medium at 5-50 ng/ml,total amount of cells positive for C-peptide versus control without exendin-4,"human ES cells [1]; 5 ng/ml, after 60 days of differentiation (FIGS. 9A-B)",sufficient to increase
same,"number of C-peptide/glucagon positive areas, 50 ng/ml relative to 5 ng/ml",human ES cells [1]; day 60 (not shown),3 time more
same,effect on the percentage of Pdx1 positive cells,"human ES cells [2]; 5-50 ng/ml, with nicotinamide, cell counting (data not shown)",positive effect
"CC1=C(/C=C/C(C)=C/C=C/C(C)=C/C(=O)O)C(C)(C)CCC1 [retinoic acid, All trans retinoic acid]",cultured cells expressing Pdx1,"human ES cells [2]; day 14, two days after end of retinoic acid treatment (2 μM ATRA with FGF10 and forskolin)",about 50%

# Reference: US9404087B2, “Insulin producing cells derived from pluripotent stem cells” (Kadimastem Ltd., priority 2010, dated 2016)
